Test results reported in patent US7999119B2, “Compounds having CRTH2 antagonist activity” (Oxagen Limited, priority 2006, dated 2011).
Where “and” joins values, the source holds several entries; their conditions need not be identical. Equal entries are not always repeated. Where two headings read alike, the source gives them in different places.

Key:
[1] = test system: PGD2 induced eosinophil shape change; assay: Human whole blood eosinophil shape change assay; assay type: cell-based
Procedure: Human Whole Blood Eosinophil Shape Change Assay
Compounds 1 to 3 were assayed for their effect on PGD2 induced eosinophil shape change and were compared with Comparator Compounds A to G.
Shape Change Assay in Whole Blood
Compounds (1 μl, 200× final concentration) were added directly to 200 μl whole blood, mixed well and incubated for 15 min, 37° C., 5% CO2. After this time, cell shape was fixed by addition of 300 μl Cytofix™ buffer (BD Biosciences), 15 min on ice. 10 ml RBC lysis buffer was added to the fixed cells, incubated 5 min, at room temperature and centrifuged, 300×g for 5 min. Supernatant (containing lysed red cells) was removed and the lysis step was repeated. Leukocytes were resuspended in 250 μl RPMI/10% FCS and shape change analysed by FACS. Eosinophils were gated out based on their autofluorescence and 2000 eosinophil events were counted per sample. Data were analysed in triplicate.

[2] = Pharmacokinetics following oral administration in the rat; assay type: in vivo; details: for concentration at 0.25 h / concentration at 0.5 h / concentration at 1 h / concentration at 2 h / concentration at 4 h / concentration at 6 h / concentration at 8 h / concentration at 12 h / concentration at 24 h / AUC(0-inf) / Cmax / Tmax / half-life / Concentration in Blood / AUCinf / T½: rat, 3 mg/kg; for concentration at 0.25 h / concentration at 0.5 h / concentration at 1 h / concentration at 2 h / concentration at 4 h / concentration at 6 h / concentration at 8 h / concentration at 12 h / concentration at 24 h / Concentration in Blood: 3 mg/kg oral; for AUC(0-inf) / Cmax / Tmax / half-life / AUCinf / T½: 3 mg/kg p.o; for Fold over IC50 at 12 h: mean blood concentration at 12 h (rat, 3 mg/kg p.o.) divided by whole blood IC50 in ng/ml
Procedure: Investigation of Pharmacokinetics of Compounds of General Formula (I) Following Oral Administration in the Rat
Rats were weighed on the day of dosing.
The test material was prepared as a 0.3 mg/mL suspension in 1% carboxy-methyl-cellulose (CMC).
Three groups of 3 rats were dosed as follows:
Doses were administered as a single oral dose using a gavage tube at a constant dose volume of 10 mL/kg.
At each sampling time point blood samples (approximately 0.3 mL) was taken from a catheter inserted into a lateral tail vein prior to the start of the experiment. The final blood sample (approximately 2 mL) from each animal was taken by cardiac puncture under isoflurane anaesthesia following which the animal was killed by exsanguination. Blood samples were taken into individual heparinised containers. Blood samples were collected at the following times post-dose:
Following collection, the blood samples were centrifuged (approximately 10,000×g, 2 min at 4° C.) and the plasma stored as one aliquot at approximately −20° C. pending analysis of drug concentrations by LC-MS/MS.
The plasma samples were analysed for test material concentrations at BioDynamics using an LC-MS/MS method developed at BioDynamics.

[3] = test system: DK-PGD2-induced blood eosinophilia; assay: Inhibition of DK-PGD2-induced blood eosinophilia in rats; assay type: in vivo, rat; details: female rats, oral dosing 30 min before 10 μg DK-PGD2 intracardiac; ED50 from dose-response curve; the values are: ED50
Procedure: Evaluation of Compounds of General Formula (I) as Inhibitors of 13,14-dihydro-15-keto prostaglandin D2 (DK-PGD2)-Induced Blood Eosinophilia in Rats
The test compound was dissolved in DMSO and diluted with water to give a final dosing volume of 2 ml/kg.
Female rats (175-250 g; UH colony) were dosed orally with test compound (or vehicle).
30 min after dosing all animals were anaesthetised with isoflurane.
Following induction of anaesthesia, animals receive an intracardiac injection of 10 μg DK-PGD2 in 0.3 ml heparinised (10 U/ml) saline. Control animals received an injection of 0.3 ml heparinised saline.
60 min after the intracardiac injection, animals were injected with an overdose of pentobarbitone sodium and a blood sample was taken (into heparin) by cardiac puncture while the rat was anaesthetised but not dead.
An aliquot of blood (100 μl) was added to Turk's solution and the total leukocyte count determined with a haemocytometer.
A further aliquot of blood (500 μl) was mixed with an equal volume of 4% Dextran (mw 500,000) and the erythrocytes allowed to settle. A cytospin preparation was made from the resulting leukocyte rich fraction.
Cytospin preparations were fixed with methanol (5 min) and stained with May-Grunwald (5 min) and Giemsa (15 min) stains. Finally cytospins were washed in phosphate buffer (pH6.8) and air dried.
Differential leukocyte counts were obtained from the cytospin preparations.
Blood eosinophil numbers were determined from the total leukocyte count and the percentage eosinophils (differential count).
Because it was impractical to generate sufficient data in any given experiment, data were obtained over a number of replicate experiments. Data from these replicate experiments were pooled, to provide at least 5 animals in each group and a dose-response curve fitted following a significance test (Mann Whitney) to determine whether or not DK-PGD2 caused a significant increase in blood eosinophils (GraphPad, Prism). A difference between groups was taken to be significant when P<0.05. ED50 values were calculated from the dose-response curve.

[4] = Homo sapiens, Eosinophil, 10 nm PGD2-induced eosinophil shape change, human whole blood, read-out: Whole Blood IC50
[5] = Homo sapiens, Eosinophil, Table 12 summary of whole blood eosinophil shape change IC50, read-out: IC50 (μmol)
[6] = male, plasma, po, 0.25 h, individual male animals, read-out: Concentration in Blood
[7] = male, plasma, po, 0.25 h, mean, read-out: Concentration in Blood, Mean
[8] = male, plasma, po, 0.5 h, individual male animals, read-out: Concentration in Blood
[9] = male, plasma, po, 0.5 h, mean, read-out: Concentration in Blood, Mean
[10] = male, plasma, po, 1 h, individual male animals, read-out: Concentration in Blood
[11] = male, plasma, po, 1 h, mean, read-out: Concentration in Blood, Mean
[12] = male, plasma, po, 2 h, individual male animals, read-out: Concentration in Blood
[13] = male, plasma, po, 2 h, mean, read-out: Concentration in Blood, Mean
[14] = male, plasma, po, 4 h, individual male animals, read-out: Concentration in Blood
[15] = male, plasma, po, 4 h, mean, read-out: Concentration in Blood, Mean
[16] = male, plasma, po, 6 h, mean, read-out: Concentration in Blood, Mean
[17] = male, plasma, po, 8 h, mean, read-out: Concentration in Blood, Mean
[18] = male, plasma, po, 12 h, mean, read-out: Concentration in Blood, Mean
[19] = male, plasma, po, 24 h, mean, read-out: Concentration in Blood, Mean
[20] = male, plasma, po, individual male animals, read-out: AUCinf
[21] = male, plasma, po, individual male animals, read-out: Cmax
[22] = male, plasma, po, individual male animals, read-out: Tmax
[23] = male, plasma, po, individual male animals, read-out: T½ (converted)
[24] = male, plasma, po, mean, summary without unit (Table 12), read-out: AUCinf (mean)
[25] = male, plasma, po, mean, summary without unit (Table 12), read-out: Cmax (mean)
[26] = male, plasma, po, mean, read-out: AUCinf, Mean
[27] = male, plasma, po, mean, read-out: Cmax, Mean
[28] = male, plasma, po, mean, read-out: Tmax, Mean
[29] = male, plasma, po, mean, read-out: T½, Mean (converted)
[30] = 0.25 h, individual male animals

Cc1c(Cc2ccccc2S(=O)(=O)c2ccc(F)cc2)c2cc(F)ccc2n1CC(=O)O [Compound 3, 2-(5-fluoro-3-(2-(4-fluorophenylsulfonyl)benzyl)-2-methyl-1H-indol-1-yl)acetic acid]
IC50 [1, 4]: 6 nM | IC50 [1, 5]: 6 nM | IC50 ([1]; Homo sapiens, Eosinophil, whole blood eosinophil shape change IC50 converted to ng/mL, read-out: IC50): 2.7 ng/mL | concentration at 0.25 h [2, 6]: 836 ng/mL | concentration at 0.25 h [2, 7]: 1100 ng/mL | concentration at 0.5 h [2, 8]: 2060 ng/mL | concentration at 0.5 h [2, 9]: 2250 ng/mL | concentration at 1 h [2, 10]: 2490 ng/mL | concentration at 1 h [2, 11]: 3140 ng/mL | concentration at 2 h [2, 12]: 4320 ng/mL | concentration at 2 h [2, 13]: 4080 ng/mL | concentration at 4 h [2, 14]: 3130 ng/mL | concentration at 4 h [2, 15]: 2400 ng/mL | concentration at 6 h ([2]; male, plasma, po, 6 h, individual male animals, read-out: Concentration in Blood): 1330 ng/mL | concentration at 6 h [2, 16]: 1140 ng/mL | concentration at 8 h ([2]; male, plasma, po, 8 h, individual male animals, read-out: Concentration in Blood): 1160 ng/mL | concentration at 8 h [2, 17]: 847 ng/mL | concentration at 12 h [2, 18]: 277 ng/mL | concentration at 24 h [2, 19]: 16.1 ng/mL | AUC(0-inf) [2, 20]: 24400 ng·h/mL | Cmax [2, 21]: 4320 ng/mL | Tmax [2, 22]: 2 h | half-life [2, 23]: 3.26 h | AUC(0-inf) [2, 24]: 21100 ng·h/mL | Cmax [2, 25]: 4080 ng/mL | AUC(0-inf) [2, 26]: 21100 ng·h/mL | Cmax [2, 27]: 4080 ng/mL | Tmax [2, 28]: 2 h | half-life [2, 29]: 2.8 h | Fold over IC50 at 12 h [2]: 102 | Concentration in Blood [2, 30]: 1130.7 ng/mL and 1337.2 ng/mL | Concentration in Blood ([2]; 0.5 h, individual male animals): 2205.2 ng/mL and 2487.5 ng/mL | Concentration in Blood ([2]; 1 h, individual male animals): 3547.8 ng/mL and 3393.7 ng/mL | Concentration in Blood ([2]; 2 h, individual male animals): 3685.1 ng/mL and 4221.0 ng/mL | Concentration in Blood ([2]; 4 h, individual male animals): 2023.1 ng/mL and 2053.8 ng/mL | Concentration in Blood ([2]; 6 h, individual male animals): 995.0 ng/mL and 1098.0 ng/mL | Concentration in Blood ([2]; 8 h, individual male animals): 699.5 ng/mL and 678.5 ng/mL | Concentration in Blood ([2]; 12 h, individual male animals): 465.3 ng/mL and 163.3 ng/mL and 201.1 ng/mL | Concentration in Blood ([2]; 24 h, individual male animals): 38.2 ng/mL and 0.0 ng/mL and 10.1 ng/mL | AUCinf ([2]; individual male animals): 17738 ng·h/mL and 19110 ng·h/mL | Cmax ([2]; individual male animals): 3685 ng/mL and 4221 ng/mL | T½ ([2]; individual male animals): 2.26 h and 2.62 h | Potency in inhibition of DK-PGD2-induced blood eosinophilia [3]: 10 µg/kg

Cc1c(Cc2ccccc2S(=O)(=O)c2ccccc2)c2cc(F)ccc2n1CC(=O)O [Compound 1, 2-(5-fluoro-2-methyl-3-(2-(phenylsulfonyl)benzyl)-1H-indol-1-yl)acetic acid]
IC50 [1, 4]: 5 nM | IC50 [1, 5]: 5 nM | IC50 ([1]; whole blood eosinophil shape change IC50 converted to ng/mL): 2.2 ng/mL | concentration at 0.25 h [2, 6]: 1160 ng/mL | concentration at 0.25 h [2, 7]: 1450 ng/mL | concentration at 0.5 h [2, 8]: 2680 ng/mL | concentration at 0.5 h [2, 9]: 2910 ng/mL | concentration at 1 h [2, 10]: 3840 ng/mL | concentration at 1 h [2, 11]: 4000 ng/mL | concentration at 2 h [2, 12]: 4330 ng/mL | concentration at 2 h [2, 13]: 3950 ng/mL | concentration at 4 h [2, 14]: 1890 ng/mL | concentration at 4 h [2, 15]: 1540 ng/mL | concentration at 6 h [2, 16]: 1050 ng/mL | concentration at 8 h [2, 17]: 734 ng/mL | concentration at 12 h ([2]; male, plasma, po, 12 h, individual male animals, read-out: Concentration in Blood): 455 ng/mL | concentration at 12 h [2, 18]: 375 ng/mL | concentration at 24 h [2, 19]: 47.4 ng/mL | AUC(0-inf) [2, 20]: 23800 ng·h/mL | Cmax [2, 21]: 4330 ng/mL | Tmax [2, 22]: 2 h | half-life [2, 23]: 4.11 h | AUC(0-inf) [2, 24]: 19200 ng·h/mL | Cmax [2, 25]: 4160 ng/mL | AUC(0-inf) [2, 26]: 19300 ng·h/mL | Cmax [2, 27]: 4160 ng/mL | Tmax [2, 28]: 1.3 h | half-life [2, 29]: 3.6 h | Fold over IC50 at 12 h [2]: 170 | Concentration in Blood [2, 30]: 1496.0 ng/mL and 1678.0 ng/mL | Concentration in Blood ([2]; 0.5 h, individual male animals): 2792.4 ng/mL and 3264.7 ng/mL | Concentration in Blood ([2]; 1 h, individual male animals): 3895.3 ng/mL and 4262.9 ng/mL | Concentration in Blood ([2]; 2 h, individual male animals): 3454.7 ng/mL and 4051.1 ng/mL | Concentration in Blood ([2]; 4 h, individual male animals): 1046.5 ng/mL and 1670.8 ng/mL | Concentration in Blood ([2]; 6 h, individual male animals): 1423.7 ng/mL and 547.5 ng/mL and 1183.1 ng/mL | Concentration in Blood ([2]; 8 h, individual male animals): 1099.9 ng/mL and 404.7 ng/mL and 696.2 ng/mL | Concentration in Blood ([2]; 12 h, individual male animals): 256.6 ng/mL and 412.8 ng/mL | Concentration in Blood ([2]; 24 h, individual male animals): 68.5 ng/mL and 10.2 ng/mL and 63.5 ng/mL | AUCinf ([2]; individual male animals): 14846 ng·h/mL and 21731 ng·h/mL | Cmax ([2]; individual male animals): 3895 ng/mL and 4263 ng/mL | Tmax ([2]; individual male animals): 1 h | T½ ([2]; individual male animals): 3.07 h and 4.59 h | Potency in inhibition of DK-PGD2-induced blood eosinophilia [3]: 2.5 µg/kg
